# From the NIST ThermoML archive (doi:10.1021/acs.jced.5b01082)
# ± gives the expanded uncertainty stated by the source.
# What was measured:
# [1] = 101.33 kPa, Liquid; for viscosity: Cone and plate viscometry; for mass density: Vibrating tube method
# [2] = wn = mass fraction of the nth substance listed; conditions: 100 kPa, Liquid; for viscosity: Cone and plate viscometry; for mass density: Vibrating tube method
viscosity ([1]; 298.15 K),mass density ([1]; 298.15 K),viscosity ([1]; 310.15 K),mass density ([1]; 310.15 K),viscosity ([1]; 318.15 K),mass density ([1]; 318.15 K),"viscosity ([2]; 298.15 K, w2 = 0.151)","mass density ([2]; 298.15 K, w2 = 0.151)","viscosity ([2]; 310.15 K, w2 = 0.146)","mass density ([2]; 310.15 K, w2 = 0.146)","viscosity ([2]; 318.15 K, w2 = 0.142)","mass density ([2]; 318.15 K, w2 = 0.142)",SMILES
999.6 ± 120 mPa·s,884.09 ± 9.7 kg/m3,482.6 ± 54 mPa·s,876.93 ± 9.6 kg/m3,316.7 ± 35 mPa·s,872.2 ± 9.5 kg/m3,–,–,–,–,–,–,CC(CC(C)(C)C)CP(=O)([O-])CC(C)CC(C)(C)C.CCCCCCCCCCCCCC[P+](CCCCCC)(CCCCCC)CCCCCC
–,–,–,–,–,–,142.4 ± 15 mPa·s,909.07 ± 9.6 kg/m3,79.66 ± 8.2 mPa·s,900.11 ± 9.5 kg/m3,55.58 ± 5.7 mPa·s,893.78 ± 9.4 kg/m3,CC(CC(C)(C)C)CP(=O)([O-])CC(C)CC(C)(C)C.CCCCCCCCCCCCCC[P+](CCCCCC)(CCCCCC)CCCCCC + O
